Molecular target: T1, MetAP2 (Homo sapiens, UniProt P50579)
T1 construct: endogenous in cells; host or cells: HeLa
Assay: Test Example 3: HeLa cells, Western blot MetAP2/actin (Testing Method C)
Assay type: cell-based
Conditions: MetAP2, 0.1 uM, 24 hours, 1 or less = degradation promoted
Experimental: Test Example 3: Evaluation Using HeLa Cell (Testing Method C)
HeLa cells were inoculated to Dulbecco's Modified Eagle Medium (DMEM) and cultured for 24 hours. A test compound (specifically, compounds of Examples 47 to 52, 59 and 60) was added thereto at the final concentration shown in Table 2, followed by incubation for 24 hours under conditions of 37° C./5% CO2. The cells were washed with PBS three times and treated with a cell lysis solution containing a proteolytic enzyme inhibitor to obtain a cell extract. The cell extract was subjected to SDS-PAGE. After the electrophoresis, Brd4, FKBP12 or MetAP2 and actin were detected by Western blot. The ratio of the Brd4, FKBP12 or MetAP2/actin value of the drug-treated cells to the Brd4, FKBP12 or MetAP2/actin value of a control group in drug-untreated cells was regarded as an activity value. A value of 1 or less represents that degradation of Brd4, FKBP12 or MetAP2 was promoted.

T1 sequence (P50579 whole entry): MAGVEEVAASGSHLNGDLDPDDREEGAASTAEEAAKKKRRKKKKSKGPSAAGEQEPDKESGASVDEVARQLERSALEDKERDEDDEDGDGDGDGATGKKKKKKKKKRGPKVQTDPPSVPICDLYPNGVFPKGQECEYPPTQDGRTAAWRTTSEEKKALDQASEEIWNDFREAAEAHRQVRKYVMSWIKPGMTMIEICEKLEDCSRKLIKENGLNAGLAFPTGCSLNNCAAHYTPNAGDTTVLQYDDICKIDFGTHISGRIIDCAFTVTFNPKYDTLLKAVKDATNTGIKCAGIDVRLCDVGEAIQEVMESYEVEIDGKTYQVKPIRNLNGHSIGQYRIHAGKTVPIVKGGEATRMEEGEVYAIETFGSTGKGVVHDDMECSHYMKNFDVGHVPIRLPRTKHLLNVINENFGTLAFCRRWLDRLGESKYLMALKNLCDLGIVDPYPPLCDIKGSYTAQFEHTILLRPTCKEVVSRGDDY

CO[C@@H]1[C@H](OC(=O)NCCCOCCOCCOCCCNC(=O)[C@H](CSc2nc3c(=O)[nH]c(N)nc3n2Cc2ccc(F)cc2)NC(C)=O)CC[C@]2(CO2)[C@H]1[C@@]1(C)O[C@@H]1CC=C(C)C [Example 60, (3R,5S,6R)-5-Methoxy-4-((2R,3R)-2-methyl-3-(3-methylbut-2-en-1-yl)oxiran-2-yl)-1-oxaspiro[2.5]oct-6-yl (3-(2-(2-(3-((N-acetyl-S-(2-amino-9-(4-fluorobenzyl)-6-oxo-6,9-dihydro-1H-purin-8-yl)-L-cysteinyl)amino)propoxy)ethoxy)ethoxy)propyl)carbamate]
Activity value (MetAP2/actin of drug-treated cells relative to drug-untreated control): 0.7

Source: patent US11986480B2, “Heterocyclic compound” (TOHOKU UNIVERSITY, priority 2017, dated 2024)
